Assays:
olfactory receptor OR2L3 [1] = target: T1, olfactory receptor OR2L3 (Homo sapiens, UniProt Q8NG85); assay: Response of olfactory receptor OR2L3 to unpleasant odor-causing substance (luciferase reporter gene assay); format: cell-based; settings: various concentrations, stimulation 3 hours, HEK293T cells expressing OR2L3; FIGS. 1 to 5
T1 construct: N-terminal 20 amino acid residues of bovine rhodopsin (Rho tag); expressed in transfected cells; host or cells: HEK293T
T1 sequence (Q8NG85 1-312): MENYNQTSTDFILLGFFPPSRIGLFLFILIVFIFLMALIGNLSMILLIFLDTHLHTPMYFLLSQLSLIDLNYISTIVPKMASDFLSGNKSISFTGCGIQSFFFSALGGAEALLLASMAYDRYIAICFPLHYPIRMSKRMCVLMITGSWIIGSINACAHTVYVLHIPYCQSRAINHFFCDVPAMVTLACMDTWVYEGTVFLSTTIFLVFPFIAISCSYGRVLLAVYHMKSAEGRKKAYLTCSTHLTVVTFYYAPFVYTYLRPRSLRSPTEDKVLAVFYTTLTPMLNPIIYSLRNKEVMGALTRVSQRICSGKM
Experimental: (§1) A human olfactory receptor gene was obtained by cloning according to the PCR method using Human Genomic DNA: Female (Promega) based on the sequence information registered in GenBank. The N-terminal 20 amino acid residues of bovine rhodopsin were incorporated into a pME18S vector, and the obtained human olfactory receptor gene was further incorporated downstream thereof, thereby obtaining a human olfactory receptor gene expression vector.
(§2) 0.05 μg of the human olfactory receptor gene expression vector, 0.01 μg of an RTP1S vector, 0.01 μg of a firefly luciferase vector pGL4.29 containing a cAMP-responsive sequence promoter (Promega), and 0.005 μg of a Renilla luciferase vector pGL4.74 containing a thymidine kinase promoter (Promega) were dissolved in 10 μL of Opti-MEM I (gibco) to obtain a gene solution (for one well). 100 μL of HEK293T cells were seeded in each well of a 96-well plate (Biocoat manufactured by Corning) so as to reach confluency after 24 hours. According to the directions for use of Lipofectamine 3000, by the lipofection method, the gene solution was added to each well to perform gene transfer to cells, and culturing was performed under 5% carbon dioxide atmosphere at 37° C. for 24 hours.
(§3) After removing the culture medium, 50 μL of CD293 medium (gibco) (20 μM L-glutamine added) including measured concentration of an aroma compound as a sample was added to each well, and stimulation was performed for 3 hours. After that, the luciferase activity was measured according to the directions for use of Dual-Luciferase Reporter Assay System (Promega). The response strength of the olfactory receptor was expressed by the Fold Increase value, which is obtained by dividing the luciferase activity generated by stimulation of the aroma compound by the luciferase activity generated in the test system not including the aroma compound.
Responses of the olfactory receptor OR2L3 to skatole, indole, α-terpineol, 4-terpineol or p-methylacetophenone as a typical example of the unpleasant odor-causing substance were measured with various concentrations by means of luciferase reporter gene assay. […] Meanwhile, in the Mock test (using cells in which OR2L3 was not expressed), no response was shown. That is, it was shown that OR2L3 specifically responds to the respective unpleasant odor-causing substances.

olfactory receptor OR2L3 [2] = target: T1, olfactory receptor OR2L3; assay: Effect of suppressing the response of OR2L3 to unpleasant odor (luciferase reporter gene assay); format: cell-based; settings: for Effect of suppressing the response of OR2L3 to indole: test substance mixed with indole, FIGS. 9 to 11; for Effect of suppressing the response of OR2L3 to skatole: test substance mixed with skatole, ratio of Fold Increase value, FIGS. 6 to 8
Experimental: as §1, §2, §3
With respect to Group A, the effect of suppressing the response of OR2L3 that strongly responded to unpleasant odors was measured by means of luciferase reporter gene assay. In luciferase reporter gene assay, skatole and Guava coeur (registered trademark) were used by being mixed with a sample. The Fold Increase value in the test in which Guava coeur was not mixed was regarded as 1, and the ratio of the Fold Increase value in the test in which Guava coeur was mixed was obtained.
Guava coeur in the evaluation of the effect of suppressing the response of OR2L3 was replaced by Dextramber (registered trademark), and the test was conducted in the same manner. […] Similarly, Guava coeur was replaced by Hindinol (registered trademark) and the test was conducted.
Regarding the unpleasant odor in the evaluation of the effect of suppressing the response of OR2L3, skatole was replaced by indole, and the test was conducted in the same manner.
In the evaluation of the effect of suppressing the response of OR2L3, the test was further conducted using combinations in which Guava coeur was replaced by another material of Group A and the skatole as the unpleasant odor was replaced by α-terpineol, 4-terpineol or p-methylacetophenone.

[3] = Sensory evaluation of ability to suppress model fecal odor by fragrance compositions; set-up: species or system human; settings: substance blended in the fragrance composition (floral-fruity base); result in words
Experimental: Fragrance compositions of Fragrance 1 to Fragrance 41 were prepared according to the formulations in Tables 2-6 below. DPG in the tables means dipropylene glycol. […] Note that the way of dividing the group and the ratio in the group are optional and not limited by Table 7. The floral-fruity base in Tables 2-6 was prepared according to Table 8.
Regarding these fragrance compositions, the ability to suppress the unpleasant odor was confirmed by means of sensory evaluation. As the unpleasant odor, a model fecal odor containing skatole, indole, butyric acid, p-cresol and dimethyl trisulfide (Lin et al., Environ. Sci. Technol., 2013, 47(14), pp. 7876-7882) was diluted 100-fold, and 10 μL thereof was dropped on a cotton ball, and as a test substance, 1 μL of one of Fragrance 1 to Fragrance 41 was dropped on the cotton ball. Then the cotton ball was put into a plastic bottle (OZO-40 manufactured by Takemoto Yohki Co., Ltd.). The bottle was allowed to stand at room temperature for 1 hour to sufficiently volatilize odor molecules therein. The sensory evaluation test was conducted by a panel consisting of 20 persons, who made evaluation as follows: the unpleasantness in the case where the unpleasant odor was dropped solely was rated as −3, and the unpleasantness in the case where the test substance was mixed was rated as from −4 (extremely unpleasant) to +4 (extremely pleasant). The average value was calculated from obtained numerical values.

[4] = Sensory evaluation of unpleasant odor suppression ability of Group A; set-up: species or system human; settings: for Indole strength / Skatole strength: average of 20 panelists, scale 0 (not smelled) to 10 (very strongly), unpleasant odor alone = 8, 1 hour; for Indole strength: 10 μL indole diluted 100-fold + 1 μL test substance; for Skatole strength: 10 μL skatole diluted 100-fold + 1 μL test substance; for Effect of suppressing the unpleasant odors (skatole, indole): sensory evaluation, result in words
Experimental: The unpleasant odor suppression ability of test substances having activity to inhibit receptor action was confirmed by sensory evaluation. A cotton ball on which 10 μL of skatole or indole diluted 100-fold with triethyl citrate as an unpleasant odor and 1 μL of a test substance were dropped was put into a plastic bottle (OZO-40 manufactured by Takemoto Yohki Co., Ltd.). The bottle was allowed to stand at room temperature for 1 hour to sufficiently volatilize odor molecules therein. The sensory evaluation test was conducted by a panel consisting of 20 persons, who made evaluation as follows: the odor strength in the case where the unpleasant odor was dropped solely was rated as 8, and the unpleasant odor strength in the case where the test substance was mixed was rated as from 0 (the unpleasant odor is not smelled) to 10 (the unpleasant odor is smelled very strongly). The average value was calculated from obtained numerical values.

Cc1c[nH]c2ccccc12 [skatole]
Response of the olfactory receptor OR2L3 (Fold Increase value) (olfactory receptor OR2L3 [1]): concentration-dependent responses

CC(=CCC1CC=C(C)C1(C)C)CO (stereo not shown) [Hindinol, 2-methyl-4-(2,2,3-trimethyl-3-cyclopentenyl)-2-buten-1-ol]
Effect of suppressing the response of OR2L3 to indole (olfactory receptor OR2L3 [2]): concentration-dependently reducing the response | Effect of suppressing the response of OR2L3 to skatole (olfactory receptor OR2L3 [2]): concentration-dependently reducing the response | Suppression of the unpleasantness of the model fecal odor [3]: suppress the unpleasantness | Indole strength [4]: 4.1 | Skatole strength [4]: 3.6 | Effect of suppressing the unpleasant odors (skatole, indole) [4]: suppress the unpleasant odors

CCOC(=O)C(C)C(C)S (stereo not shown) [Guava coeur, ethyl 3-mercapto-2-methylbutyrate]
Effect of suppressing the response of OR2L3 to indole (olfactory receptor OR2L3 [2]): concentration-dependently reducing the response | Effect of suppressing the response of OR2L3 to skatole (olfactory receptor OR2L3 [2]): concentration-dependently reducing the response | Suppression of the unpleasantness of the model fecal odor [3]: suppress the unpleasantness | Indole strength [4]: 3.3 | Skatole strength [4]: 3.0 | Effect of suppressing the unpleasant odors (skatole, indole) [4]: suppress the unpleasant odors

CC1CCC(C(C)(C)S)C(=O)C1 (stereo not shown) [Ringonol, p-mentha-8-thiol-3-one]
Suppression of the unpleasantness of the model fecal odor [3]: suppress the unpleasantness | Indole strength [4]: 3.7 | Skatole strength [4]: 3.9 | Effect of suppressing the unpleasant odors (skatole, indole) [4]: suppress the unpleasant odors

c1ccc2[nH]ccc2c1 [indole]
Response of the olfactory receptor OR2L3 (Fold Increase value) (olfactory receptor OR2L3 [1]): concentration-dependent responses

CC1=CCC(O)(C(C)C)CC1 (stereo not shown) [Fragrance 4-terpineol, 4-terpineol]
Response of the olfactory receptor OR2L3 (Fold Increase value) (olfactory receptor OR2L3 [1]): concentration-dependent responses

CCCC(O)CCC1C(C)CCCC1(C)C (stereo not shown) [Dextramber, 1-(2,2,6-trimethylcyclohexyl)hexan-3-ol]
Effect of suppressing the response of OR2L3 to indole (olfactory receptor OR2L3 [2]): concentration-dependently reducing the response | Effect of suppressing the response of OR2L3 to skatole (olfactory receptor OR2L3 [2]): concentration-dependently reducing the response | Suppression of the unpleasantness of the model fecal odor [3]: suppress the unpleasantness | Indole strength [4]: 3.9 | Skatole strength [4]: 4.0 | Effect of suppressing the unpleasant odors (skatole, indole) [4]: suppress the unpleasant odors

CCCCCCOC(=O)c1ccccc1O [Hexyl salicylate, hexyl salicylate, reference compound]
Effect of suppressing the response of OR2L3 to skatole (olfactory receptor OR2L3 [2]): did not suppress | Indole strength [4]: 6.7 | Skatole strength [4]: 6.9

CC(c1ccccc1)C1CC1C(C)(C)O (stereo not shown) [Pamplefix, dimethyl-2-(1-phenylethyl)cyclopropylmethanol]
Suppression of the unpleasantness of the model fecal odor [3]: suppress the unpleasantness | Indole strength [4]: 2.4 | Skatole strength [4]: 2.5 | Effect of suppressing the unpleasant odors (skatole, indole) [4]: suppress the unpleasant odors

CC(C)(C)C1CCC(O)CC1 (stereo not shown) [4-t-butylcyclohexanol, reference compound]
Effect of suppressing the response of OR2L3 to skatole (olfactory receptor OR2L3 [2]): did not suppress | Indole strength [4]: 6.0 | Skatole strength [4]: 6.3

methyl fenchol [Humus Ether]
Effect of suppressing the response of OR2L3 to skatole (olfactory receptor OR2L3 [2]): suppresses | Suppression of the unpleasantness of the model fecal odor [3]: suppressed the unpleasantness

CC(=O)c1ccc(C)cc1 [p-methylacetophenone]
Response of the olfactory receptor OR2L3 (Fold Increase value) (olfactory receptor OR2L3 [1]): concentration-dependent responses

CC1=CCC(C(C)(C)O)CC1 (stereo not drawn) [α-terpineol]
Response of the olfactory receptor OR2L3 (Fold Increase value) (olfactory receptor OR2L3 [1]): concentration-dependent responses

O=C1CCCC=CCCCCCCCCCC1 [Ambretone, 5-cyclohexadecenone]
Suppression of the unpleasantness of the model fecal odor [3]: suppress the unpleasantness | Indole strength [4]: 3.6 | Skatole strength [4]: 4.2 | Effect of suppressing the unpleasant odors (skatole, indole) [4]: suppress the unpleasant odors
